Where a SMILES comes first, the peptide text is derived from it. [ ]: non-standard residue; d: D form. Hica(2S) = CC(C)C[C@H](O)C(=O)O; NMeL = CN[C@@H](CC(C)C)C(=O)O
Tests used:
[1] = system: cell proliferation; assay: conventional [3H]-thymidine incorporation assays; assay type: cell-based
Source text: Thus, the present invention also provides a method of treating, preventing, or inhibiting inflammation or an inflammatory disease or disorder in a subject without inhibiting cell proliferation in the subject.

[2] = system: edema caused by phorbol 12-myristate 13-acetate (PMA) in mouse ear; assay: Inhibition of mouse ear edema (PMA mouse ear model); assay type: in vivo, mice; details: for inflammation caused by PMA (result in words): irritant phorbol 12-myristate 13-acetate (PMA)
Method: The efficacy of Exumolide compounds as an anti-inflammatory agent was established by the following assay. Exumolide A was topically applied in acetone to the inside pinnae of the ears of mice in a solution comprising an edema-causing irritant, phorbol 12-myristate 13-acetate (PMA). Specifically, 2 μg/ear of PMA alone or in combination with 50 μg/ear of Exumolide A was applied to the left ears (5 mice per treatment group) and acetone was applied to all right ears. After 3 hours, 20 minutes incubation, the mice were sacrificed, the ears removed and bores taken and weighed. Edema was measured by subtracting the weight of the right ear (acetone control) from the weight of the left ear (treated). Results were recorded as % decrease (inhibition) or % increase (potentiation) in edema relative to the PMA control group edema.

[3] = reported on isolation, Fenical et al. (1998) Tetrahed. Letts. 39:2463-2466; cited from earlier work

With `CC(C)C[C@@H]1OC(=O)[C@@H]2CCCN2C(=O)[C@H](Cc2ccccc2)NC(=O)[C@H](Cc2ccccc2)NC(=O)[C@H](CC(C)C)N(C)C(=O)[C@@H]2CCCN2C1=O` [Exumolide A] (cyclo(FFP[Hica(2S)]P[NMeL])) the “inhibition of cell proliferation” value [1] was “do not inhibit cell proliferation”, the “Edema (mg ± SEM)” value ([2]; 50 ug/ear topical in acetone with 2 μg/ear PMA, left minus right ear bore weight after 3 hours, 20 minutes) was 4.3 ± 1.0 mg and the “inflammation caused by PMA (result in words)” value [2] was “prevent or inhibit inflammation”. The antibiotic activity [3] was “exhibit antibiotic activity”.
For `CC(C)C[C@@H]1NC(=O)[C@@H]2CCCN2C(=O)[C@H](CC(C)C)OC(=O)[C@@H]2CCCN2C(=O)[C@H](Cc2ccccc2)NC(=O)[C@H](Cc2ccccc2)NC1=O` [Exumolide B] (cyclo(FFP[Hica(2S)]PL)), the “inhibition of cell proliferation” value [1] is given as “do not inhibit cell proliferation”, the “inflammation caused by PMA (result in words)” value [2] is given as “prevent or inhibit inflammation” and the antibiotic activity [3] is given as “exhibit antibiotic activity”.

— US20030166516A1, “Methods of treating, preventing, or inhibiting inflammation with exumolide compounds” (priority 2001, published 2003)
